Experimental data from US12285392B2, “Method for modulating metabolism” (Brightseed, Inc., priority 2018, dated 2025).

What was measured:
HNF4α = biological target: T1, HNF4α (Homo sapiens, UniProt P41235); test: Insulin promoter activity assay in T6PNE cells (HNF4α activity); format: cell-based
T1 construct: endogenous in cells; host or cells: T6PNE cells
T1 sequence (P41235 1-474): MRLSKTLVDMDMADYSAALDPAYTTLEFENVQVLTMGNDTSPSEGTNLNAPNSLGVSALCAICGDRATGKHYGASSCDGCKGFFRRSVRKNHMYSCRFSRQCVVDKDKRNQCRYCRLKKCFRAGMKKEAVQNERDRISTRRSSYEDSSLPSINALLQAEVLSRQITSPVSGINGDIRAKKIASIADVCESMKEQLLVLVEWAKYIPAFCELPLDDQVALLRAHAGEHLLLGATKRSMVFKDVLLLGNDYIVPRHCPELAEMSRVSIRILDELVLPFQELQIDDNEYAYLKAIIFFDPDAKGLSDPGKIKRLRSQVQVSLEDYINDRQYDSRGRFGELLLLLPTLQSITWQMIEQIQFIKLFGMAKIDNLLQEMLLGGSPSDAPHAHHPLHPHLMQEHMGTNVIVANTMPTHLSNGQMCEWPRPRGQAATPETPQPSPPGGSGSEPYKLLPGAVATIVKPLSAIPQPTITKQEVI
Experimental: Insulin Promoter Activity. T6PNE cells (Kiselyuk, et al. (2012) Chem Biol. 19(7):806-818; Kiselyuk, et al. (2010) J. Biomol. Screen 15(6):663-70) are seeded at 2000 cells per well in 384-well tissue culture plates in the presence of 1 μM tamoxifen and 0.03 mM palmitate. After a 24-hour incubation, a compound or extract of the invention is added to the cells. Forty-eight hours after compound or extract addition, cells are fixed in 4% paraformaldehyde and stained with DAPI. Blue (DAPI) and green (human insulin promoter driving GFP) channels are imaged.
Inhibition of HNF4α GFP Expression. Using the insulin promoter assay described herein, activity of HNF4α was assessed in the presence of BI-6015 (0, 2.5, 5 μM), a known antagonist of HNF4α (Kiselyuk, et al. (2012) Chem. Biol. 19(7):806-818), in combination with N-trans-caffeoyltyramine (0, 5, 10, 20 μM).
Given the role of HNF4α in maintaining a heal thy metabolism in humans, test compounds were screened for activity as HNF4α agonists (either direct or indirect effects). Using a known insulin promoter-reporter assay, Kiselyuk and colleagues (2010. J. Biomol. Screen 15(6):663-70), screened a library of compounds for activity to promote insulin activation. […] The OTC promoter is known to be responsive to HNF4α in transient transfection assays (Inoue, et al. (2002) J. Biol. Chem. 277:25257-65).

HepG2 cells = test: Lipid clearance in HepG2 cells (steatosis assay, Oil Red O); format: cell-based; conditions: HepG2 liver cells, 20 μM
Experimental: Lipid Clearance in HepG2 and T6PNE Cells (Steatosis Assay). The steatosis assay was carried out as described (Kiselyuk, et al. (2012) Chem. Biol. 19(7):806-818) with the exception of the drug concentration, which was 20 μM for N-trans-caffeoyltyramine with 0.25 mM palmitate in HepG2 cell lines, and 10 μM of either N-trans-caffeoyltyramine, N-trans-caffeoyltyramine, or pcoumaroyltyramine, with 0.25 mM palmitate in T6PNE cell lines. Steatosis was assessed using the Oil Red 0 Method for Fats kits (Poly Scientific; Warrington, PA), per manufacturer's guidelines. Briefly, frozen tissue slides or fixed cells were incubated in neat propylene glycol for 2 minutes and Oil Red 0 solution for 15 hours for slides or 1 hour for fixed cells, differentiated in 85% propylene glycol solution for 1 minute, washed twice with distilled water and stained in Hematoxylin of 10 seconds. Slides were mounted with glycerin jelly mounting medium.

estrogenic activity = test: Counter-screen for estrogenic activity (E47MER luciferase reporter in HeLa cells); format: cell-based, human; conditions: FIG. 5
Experimental: Counter-Screen for Estrogenic Activity. Estrogenic activity was monitored by co-transfection of a reporter plasmid containing a multimerized E-box 5′ of a minimal promoter fused to the Firefly luciferase gene (4RTK-luc) with wild-type E47 or E47MER (Kiselyuk, et al. (2010) J. Biomol. Screen 15(6):663-70). HeLa cells were transfected using polyethylenimine, 0.2 μg 4RTK-Luc plasmid and either 0.3 μg of human E47, E47MER or pMSCVhph vector in 50 μl of serum-free Dulbecco's modification of Eagle medium per well. Transfections included Renilla luciferase (pRL-TK) plasmid as a control for transfection efficacy. Transfection conditions were as described in the PPRE-Luc reporter assay of Kiselyuk, et al. ((2010) J. Biomol. Screen 15(6):663-70). Sixteen hours after transfection, culture media were changed and maintained for 48 hours with tamoxifen and/or compound or vehicle (DMSO). Cells were then lysed and assayed for luciferase activity using the Promega DUAL-LUCIFERASE® reporter assay kit (Promega Corp., Madison, WI), and luminescence was measured using the Veritas™ Microplate Luminometer (Turner Biosystems, Sunnyvale, CA). Data were normalized to Renilla luciferase (pRL-TK) and expressed as fold-change over vehicle alone.

[1] = Hepatic microsome stability assay, human; format: in vitro ADME
Experimental: Hepatic Microsome Assay. Hepatic microsomes stability assays were performed in accordance with known methods (Peddibhotla, et al. (2013) ACS Med. Chem. Lett. 4:846-851). Briefly, 3 μL of 25 μM compound solution in acetonitrile were incubated with 123 μL of mouse, human or rat liver microsomes (Xenotech, Kansas City, Kans.). […] The microsomal concentrations used were 1.0 mg/mL. Compounds were incubated in microsomes for 0, 5, 15, 30 and 60 minutes. The reactions were stopped by the addition of ice cold ACN and the reaction mixtures were centrifuged at 10,000 g for 10 minutes before the supernatant was removed for analysis. A 10 μL portion of the resulting extract was injected on a Thermo HPLC system equipped with PAL CTC plate sampler (96-well plate), Dionex Ultimate 3000 binary pump (flow rate at 0.600 mL/min), Dionex Ultimate 3000 thermostatted column compartment (temperature at 40° C.), Thermo Endura Mass Spectrometer (ESI source), using a Thermo Scientific Accucore C18 (2.6 μM, 2.1×50 mm) column. A gradient was run starting at 95% H2O (0.1% formic acid) and 5% ACN (0.1% formic acid) during the first 0.5 min, then under gradient condition of 5-100% ACN (0.1% formic acid) from minute 0.5 to 3.5, finishing at 95% H2O (0.1% formic acid) and 5% ACN (0.1% formic acid) over 0.5 min, with another 1 min at 95:5 to re-equilibrate.

In the case of O=C(/C=C/c1ccc(O)c(O)c1)NCCc1ccc(O)cc1 [N-trans-caffeoyltyramine], the “Potency in activating HNF4α relative to Alverine” value (HNF4α; FIG. 1, insulin promoter activity dose-response) is reported as “roughly an order-of-magnitude more potent than Alverine”, the “HNF4α modulation in screening” value (HNF4α; screening in the HNF4α assay) is reported as “able to act as HNF4α modulators” and the “Clearing of fats (Oil Red O staining)” value (HepG2 cells) is reported as “capable of clearing harmful fats from the liver”. The Accumulation of fats (HepG2 cells; 0.25 mM palmitate) was “inhibited accumulation of fats”, the Estrogenic activity (estrogenic activity) was “did not exhibit estrogenic activity” and the “Apparent major biotransformation pathway” value ([1]; human microsomes) was “oxidation of the left-hand aryl ring”. For the same compound, the “% Remaining” value ([1]; human microsomes, 1 μM) was 55.3%, the “% Remaining” value ([1]; human microsomes, 10 μM) was 85.4% and the “Stability in hepatic microsomes” value ([1]; human, rat and mouse hepatic microsomes) was “stable”.
